The results in this text go back to patent US20130131179A1, “IRON METABOLISM-IMPROVING AGENT” (Ajinomoto Co., Inc., priority 2006, published 2013).

Where a name gives a salt, the structure may show the parent alone.

Data set [1] concerns bilateral-kidney-extirpated rats. The data set can be described thus: Citric acid administration in a dialysis session in bilateral-kidney-extirpated rats.
Test in data set [2]: as above
Conditions: male, CD(SD), rat, plasma, intravenous.

In data set [3] the test system is bilaterally nephrectomized rats. Kind of data set: Citric acid administration in bilaterally nephrectomized rats. The note with it: third group, 4.5% (w/v) sodium citrate solution by CVC 0.25 mL/h for 4 hours.
Test in data set [4]: as above
The note with it: male, CD(SD), rat, plasma, intravenous, 0.25 mL/h of 4.5% (w/v) sodium citrate solution for 4 h.

Regarding `O=C(O)CC(O)(CC(=O)O)C(=O)O` [citric acid, sodium citrate], in data set [1] (third group versus second group, during 4 h dialysis), the “difference of plasma iron concentrations relative to that of second group (saline)” value was “about 4 times”. Besides, the “difference of plasma iron concentrations between before and after administration” value was 81 µg/dL in data set [1] (third group, 4.5% (w/v) sodium citrate solution by CVC 1.0 mL/h during 4 h dialysis with commercial dialysate) and 14 to 18 µg/dL in data set [3]. The concentration at 4 h in data set [2] is 265 µg/mL; in data set [4], 211 ± 132 µg/mL.
